Data set [1] concerns the target T1, HDAC2 Human recombinant C-terminal FLAG-tag (Homo sapiens, UniProt Q92769).
T1 construct: FLAG (C); purchased BPS Bioscience 50052
Description: Measurement of HDAC2 enzyme inhibitory activity (HTRF). The format is biochemical. Particulars: recombinant HDAC2, H3K9ac peptide, 3 hours room temperature; read-out: HDAC2 IC50. In short, it runs like this:
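Compounds were tested at 8 points in 3-fold dilutions from 99 μM final (n=2) against FLAG-tagged HDAC2 with biotinylated H3K9ac (1-21) peptide (0.6 μM as added). The reaction ran 3 h at room temperature in Tris pH 8.0 buffer, then was stopped with SAHA. Deacetylated product was detected by HTRF (Eu-anti-H3K9me0 antibody, streptavidin-XL665) as the 665/615-620 nm ratio.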
In general terms: TR-FRET usually uses a lanthanide donor and a delayed reading to cut background.

Data set [2] can be described thus: Platelet toxicity test using human blood progenitor cells (WST). Particulars: human bone marrow CD34+ progenitor cells, maximum concentration 25 μM. The class given is cell-based. How it is done:
Test Example 2: Platelet Toxicity Test Using Human Blood Progenitor Cells
Human bone marrow CD34+ progenitor cells (Lonza, 2M-101B) stored at −80° C. were thawed, spun down at 150 g for 10 minutes at 20° C., and a medium (StemSpan Expansion Supplement, STEM CELL TECHNOLOGIES, ST-02696) to which cytokines (StemSpan SFEM II, STEM CELL TECHNOLOGIES, ST-09655) was added was added to adjust to 2×10^4/well, the mixture was seeded in 12well non-coat dish (Corning, 3513), was incubated for 10 days at 37° C., 5% CO2. After 10 days, the cells were collected and spun down at 150 g for 10 minutes at 20° C., and a medium (StemSpan Expansion Supplement) containing cytokines (StemSpan SFEM II) was added so that the number of cells became 2×10^5 cells/ml. 50 μl of the cell suspension was seeded to each well of a 96-well plate (Corning, 3596) and allowed to stand overnight in an incubator at 37° C., 5% CO2. The next day, 50 μl of the test compound was treated to each well and allowed to stand for 48 hours in the incubator at 37° C., 5% CO2 (n=2). At this time, the test compound dissolved in 100% DMSO was serially diluted with DMSO at a 3-fold ratio, and then a medium containing cytokine was added to adjust the final concentration to 25, 8.33, 2.78, 0.93, 0.31, 0.1 μM. After that, 10 μl of WST (Cell count reagent SF, Nacalai Tesque Inc., 07553-44) was added to each well, and the mixture was allowed to stand in the incubator for 4 hours at 37° C., 5% CO2, and then the multi-label reader 2030 ARVO X4 (PerkinElmer) was used to measure the absorbance. At this time, the absorbance at 450 nm and the absorbance at 620 nm were obtained, and the difference between 450 nm and 620 nm was used as the measured value. The measured values were analyzed by Excel and TIBCO Spotfire, and IC50 values were calculated. At this time, for control (−), the well without cells was set as n=6 for one row, and the average value was calculated, and for control (+), the well in which DMSO was added to the cells so as to have the same concentration as the compound treatment group was set as n=6 for one row, and the average value was calculated and corrected for each plate. For the test compound, the average value of n=2 was used.

Data set [3] can be described thus: BA test (oral absorption). The format is in vivo. Particulars: plasma; mice or rats; oral vs intravenous administration. How it is done: Materials and methods for experiments to evaluate oral absorption (1) Experimental animals: mice or rats were used. (2) Rearing condition: mice or rats were allowed free access to solid feed and sterilized tap water. (3) Setting of dosage and grouping: Oral administration and intravenous administration were performed with the predetermined dosage. Grouping was set as below. (Dosage was changed per compound)
Oral administration 2 to 60 μmol/kg or 1 to 30 mg/kg (n=2 to 3)
Intravenous administration 1 to 30 μmol/kg or 0.5 to 10 mg/kg (n=2 to 3)
(4) Preparation of administration solutions: Oral administration was performed as suspension or solution. Intravenous administration was performed after solubilization. (5) Routes of administration: Oral administration was performed mandatory into the stomach by oral sonde. Intravenous administration was performed from caudal vein by syringes with needle. (6) Evaluation items: Blood was collected serially and concentration of a compound of the present invention in plasma was measured by LC/MS/MS. (7) Statistical analysis: About transition of concentration of a compound of the present invention in plasma, the area under the plasma concentration versus time curve (AUC) was calculated by non-linear least-squares method program, and bioavailability (BA) of a compound of the present invention was calculated from dosages and AUCs of the oral administration group and the intravenous administration group. The dilution concentration or the dilution solvent were changed as necessary.

Data set [4] deals with T2, human ether-a-go-go related gene (hERG) channel (Homo sapiens, UniProt Q12809).
T2 construct: expressed in transfected cells; host or cells: CHO cells
As to the kind of experiment: hERG test (whole cell patch clamp). The class given is cell-based. The note with it: CHO cells expressing hERG; concentration not given. From the text:
For the purpose of assessing risk of an electrocardiogram QT interval prolongation of the compound of the present invention, effects of the compound of the present invention on delayed rectifier K^+ current (IKr), which plays an important role in the ventricular repolarization process, was studied using CHO cells expressing human ether-a-go-go related gene (hERG) channel.
After a cell was retained at a membrane potential of −80 mV by whole cell patch clamp method using an automated patch clamp system (QPatch; Sophion Bioscience A/S) and gave a leak potential of −50 mV, IKr induced by depolarization pulse stimulation at +20 mV for 2 seconds, and further, repolarization pulse stimulation at −50 mV for 2 seconds, was recorded. A vehicle, which was the 0.1% dimethyle sulfoxide solution in extracellular solution (NaCl: 145 mmol/L, KCl: 4 mmol/L, CaCl2: 2 mmol/L, MgCl2: 1 mmol/L, glucose:10 mmol/L, HEPES (4-(2-hydroxyethyl)-1-piperazineethanesulfonic acid): 10 mmol/L, pH7.4), or the compound of the present invention had been dissolved at an objective concentration in the extracellular solution was applied to the cell at room temperature for 7 minutes or more. From the recording IKr, an absolute value of the tail peak current was measured based on the current value at the resting membrane potential using analysis software (QPatch assay software; Sophion Bioscience A/S). Further, the % inhibition of tail peak current for the compound of the present invention relative to the tail peak current after application of the vehicle was calculated to assess influence of the compound of the present invention on IKr. The dilution concentration and dilution solvent were changed as necessary.
Background: Block of hERG is tested as a sign of cardiac risk.

In data set [5] the test system is HDACs other than HDAC2 (HDAC2 knockout K562 cells). As to the kind of experiment: Evaluation of HDAC2 selectivity: H3K9 histone acetylation in HDAC2 knockout K562 cells (AlphaLISA).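 Further: 0% inhibition equals DMSO-treated group.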 The class given is cell-based. Particulars: Homo sapiens, maximum concentration 83.3 μM, 100% = SAHA-treated group, read-out: maximum inhibition rate (H3K9 histone acetylation). How it is done: Test Example 3: Evaluation of HDAC2 Selectivity
K562 cells were cultured in RPMI1640 medium (SIGMA, R8758) containing 10% FBS (Hyclone, SH30070.03) and 1% penicillin streptomycin (Nacalai Tesque, 26252-94). CompoZr (registered trademark) Zinc Finger Nuclease (Merck) targeting HDAC2 sequences was transfected into K562 cells by electroporation using Nucleofector (Lonza). The cells after transfection were subjected to limiting dilution, and DNA sequencing was performed on the cell clones in which mutations were detected by the PCR method. Cell clones lacking a base number that was not a multiple of 3 in both alleles were identified, and a single-cell cloning was performed on the cell clones to produce HDAC2 knockout K562 cells. It was confirmed that the expression of HDAC2 was not detected by Western blotting in the prepared cells.
By evaluating the H3K9 histone acetylation-enhancing activity of the test compound using HDAC2 knockout K562 cells, the inhibitory activity against HDACs other than HDAC2 was evaluated.
HDAC2 knockout K562 cells stored in liquid nitrogen were thawed and cultured in RPMI1640 medium (Nacalai Tesque, 30264-85) for 2 to 4 days. Using Echo555 (Beckman Coulter), the test compound was dispensed to the assay plate (Corning, 4513) at 37.5 nL/well, and then HDAC2 knockout K562 cells were seeded to 125 cells/4.5 μL/well, and stirred. At this time, the test compound was treated at 8 points (n=2) in the 3-fold dilution series from the maximum concentration of 83.3 μM. After culturing at 37° C. and 5% CO2 overnight, 1.5 μL/well of Lysis buffer (PerkinElmer, AL009F1) was added, and after incubating at room temperature for 15 minutes, 3 μL/well of Extraction buffer (PerkinElmer, AL009F2) was added and the mixture was incubated for 10 minutes at room temperature. Then, 5× antibody solution (prepared by diluting anti-H3K9 Acceptor beads (PerkinElmer, AL114M) 75-fold with a detection buffer prepared by diluting 10×Cell-Histone Detection buffer (PerkinElmer, AL009F3) 10-fold with ultrapure water, and diluting Biotinylated anti H3 antibody (PerkinElmer, AL118M) diluted 150 times with the detection buffer) was added at 3 μL/well, and after incubating at room temperature for 60 minutes, then 5× donor beads solution (prepared by diluting Streptavidin Donor beads (PerkinElmer, 6760002) 75 fold with the detection buffer) was added at 3 μL/well, and the mixture was incubated again at room temperature for 60 minutes, and then the emission value was measured using PHERAstar (BMG LABTECH) (excitation=680 nm, […]). […] For cell toxicity, cell viability rate was evaluated by the PrestoBlue method.
Background: In Alpha technology, singlet oxygen from a donor bead excites a nearby acceptor bead.

Data set [6] is described as follows: Metabolism stability test. Particulars: human liver microsomes 0.5 mg protein/mL, 30 minutes, 37° C., NADPH. The class given is in vitro ADME. As to the method: Using commercially available pooled human hepatic microsomes, a compound of the present invention is reacted for a constant time, and a remaining rate is calculated by comparing a reacted sample and an unreacted sample, thereby, a degree of metabolism in liver is assessed.
A reaction is performed (oxidative reaction) at 37° C. for 0 minute or 30 minutes in the presence of 1 mmol/L NADPH in 0.2 mL of a buffer (50 mmol/L Tris-HCl pH 7.4, 150 mmol/L potassium chloride, 10 mmol/L magnesium chloride) containing 0.5 mg protein/mL of human liver microsomes. After the reaction, 50 μL of the reaction solution is added to 100 μL of a methanol/acetonitrile=1/1 (v/v), mixed and centrifuged at 3000 rpm for 15 minutes. The compound of the present invention in the supernatant is quantified by LC/MS/MS or Solid Phase Extraction (SPE)/MS, and a remaining amount of the compound of the present invention after the reaction is calculated, letting a compound amount at 0 minute reaction time be 100%. The hydrolysis reaction is carried out in the absence of NADPH, and the glucuronidation reaction is carried out in the presence of 5 mmol/L UDP-glucuronic acid instead of NADPH, and the same operation is carried out thereafter. The dilution concentration and dilution solvent are changed as necessary.

T1 sequence (Q92769 whole entry): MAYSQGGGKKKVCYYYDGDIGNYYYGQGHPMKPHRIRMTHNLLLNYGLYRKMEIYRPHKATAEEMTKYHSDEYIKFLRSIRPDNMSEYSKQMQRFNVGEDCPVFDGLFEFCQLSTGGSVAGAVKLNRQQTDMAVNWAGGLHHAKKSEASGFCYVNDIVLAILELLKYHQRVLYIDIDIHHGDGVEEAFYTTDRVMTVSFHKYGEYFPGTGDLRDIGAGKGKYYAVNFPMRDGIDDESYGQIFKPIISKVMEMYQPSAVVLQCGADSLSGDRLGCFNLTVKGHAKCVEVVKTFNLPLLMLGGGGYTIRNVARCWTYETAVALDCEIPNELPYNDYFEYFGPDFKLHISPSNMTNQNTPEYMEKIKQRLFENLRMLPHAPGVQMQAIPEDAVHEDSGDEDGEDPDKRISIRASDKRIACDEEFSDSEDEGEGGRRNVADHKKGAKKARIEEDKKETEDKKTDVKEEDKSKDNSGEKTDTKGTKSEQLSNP
T2 sequence (Q12809 whole entry): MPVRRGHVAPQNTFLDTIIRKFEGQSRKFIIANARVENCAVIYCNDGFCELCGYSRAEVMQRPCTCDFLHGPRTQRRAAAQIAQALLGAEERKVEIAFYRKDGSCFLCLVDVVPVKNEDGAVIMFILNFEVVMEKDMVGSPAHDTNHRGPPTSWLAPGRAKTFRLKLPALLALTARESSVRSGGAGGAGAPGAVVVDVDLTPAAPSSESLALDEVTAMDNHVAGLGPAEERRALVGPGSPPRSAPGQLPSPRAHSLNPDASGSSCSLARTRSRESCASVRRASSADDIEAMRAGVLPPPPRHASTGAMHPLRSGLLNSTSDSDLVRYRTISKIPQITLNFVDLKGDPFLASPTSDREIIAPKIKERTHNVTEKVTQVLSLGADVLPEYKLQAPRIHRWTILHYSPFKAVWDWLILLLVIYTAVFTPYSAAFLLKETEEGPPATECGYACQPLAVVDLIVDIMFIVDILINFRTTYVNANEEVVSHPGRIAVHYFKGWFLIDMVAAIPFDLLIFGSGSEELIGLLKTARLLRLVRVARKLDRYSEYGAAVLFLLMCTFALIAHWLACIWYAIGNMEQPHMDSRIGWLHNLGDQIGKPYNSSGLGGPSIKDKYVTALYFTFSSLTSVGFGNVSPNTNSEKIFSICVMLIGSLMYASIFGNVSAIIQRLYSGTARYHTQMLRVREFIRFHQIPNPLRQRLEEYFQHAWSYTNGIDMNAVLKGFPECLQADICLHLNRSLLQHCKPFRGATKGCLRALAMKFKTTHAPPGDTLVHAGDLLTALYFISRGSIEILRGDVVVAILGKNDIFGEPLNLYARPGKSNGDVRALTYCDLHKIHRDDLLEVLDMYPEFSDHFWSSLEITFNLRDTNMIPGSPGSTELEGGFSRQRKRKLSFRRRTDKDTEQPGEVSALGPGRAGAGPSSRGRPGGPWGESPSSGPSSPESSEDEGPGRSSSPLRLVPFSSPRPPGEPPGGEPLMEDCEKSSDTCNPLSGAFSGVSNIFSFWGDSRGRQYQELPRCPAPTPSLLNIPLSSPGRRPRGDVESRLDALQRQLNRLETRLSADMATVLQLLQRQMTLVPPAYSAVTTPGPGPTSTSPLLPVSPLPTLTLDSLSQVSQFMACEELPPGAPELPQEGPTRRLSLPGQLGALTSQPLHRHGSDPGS

For the compound `Cn1cc(-c2ccc(C(=O)Nc3cc(-c4cccs4)ccc3N)nc2)cn1` [Compound I-003], in data set [1], the concentration for half-maximal inhibition (IC50) – broadly, the point on the concentration scale where inhibition reaches its midpoint – amounted to 310 nM. This compound also registered a half-inhibitory concentration (IC50) at 48 h in data set [2] above 25000 nM. Also, the bioavailability – broadly, dose-corrected exposure relative to a reference, in per cent – in data set [3] was determined as 33.8%. Further, the “% inhibition of tail peak current (IKr)” value in data set [4] was found to be 17.1%.
On the same counts, the results for `Cn1cc(-c2cnc(C(=O)Nc3cc(-c4cccs4)ccc3N)cn2)cn1` [Compound I-006] are 54 nM, above 25000 nM, 35.6% and 14.3%.
`Nc1ccc(-n2cccc2)nc1NC(=O)c1cnc(N2CCOCC2)cn1` [Compound I-030]: the half-inhibitory concentration (IC50) in data set [1] turned out to be 190 nM. The inhibition (in general, the relative decrease from the control value, in per cent) at up to 83.3 µM in data set [5] came to 9%. The “remaining rate after reaction” value in data set [6] is 101%.
As for `Nc1ccc(-c2ccc(F)nc2)cc1NC(=O)c1ccc(C(F)F)cn1` [Compound I-144], the 50% inhibitory concentration (IC50) in data set [1] was determined as 230 nM. Further, the IC50 at 48 h in data set [2] was above 25000 nM. In addition, in data set [5], the inhibition at up to 83.3 µM was 7%.
For `Nc1ccc(-c2ccc(F)nc2)cc1NC(=O)c1ccc2ocnc2n1` [Compound I-148], the IC50 in data set [1] stood at 150 nM. Also, the “remaining rate after reaction” value in data set [6] worked out at 94.9%.
For `Cn1cc(-c2ccc(N)c(NC(=O)c3cnc(OCC(F)F)cn3)c2)cn1` [Compound I-152], in data set [1], the concentration for half-maximal inhibition (IC50) came to 250 nM. In data set [6], the “remaining rate after reaction” value came to 97.9%.
Consider `Nc1ccc(-n2cccc2)nc1NC(=O)c1cnc(C2CC2)cn1` [Compound I-161], for which, in data set [1], the IC50 was determined as 350 nM. Also, in data set [2], the concentration for half-maximal inhibition (IC50) at 48 h was above 25000 nM. Moreover, the inhibition at up to 83.3 µM in data set [5] is 9%.
For `Cc1cnc(C(=O)Nc2nc(-c3ccccc3)ccc2N)cn1` [Compound I-169], the half-inhibitory concentration (IC50) in data set [1] is 360 nM. The “remaining rate after reaction” value in data set [6] was 91.4%.
For the compound `CN(C)c1ccc(C(=O)Nc2cc(-c3cnn(C)c3)ccc2N)nc1` [Compound I-177], the half-inhibitory concentration (IC50) in data set [1] was determined as 170 nM. In addition, the “remaining rate after reaction” value in data set [6] is recorded as 92%.
With `CN(C)c1cnc(C(=O)Nc2cc(-c3cnn(C)c3)ccc2N)cn1` [Compound I-179], the IC50 in data set [1] is 81 nM. In data set [5], the inhibition at up to 83.3 µM amounted to 9%. Besides, the “remaining rate after reaction” value in data set [6] turned out to be 93.5%.
Turning to `Cn1cc(-c2cc(C(=O)Nc3cc(-c4ccc(F)nc4)ccc3N)no2)cn1` [Compound I-198], the half-maximal inhibitory concentration (IC50) in data set [1] is 240 nM. Also, the IC50 at 48 h in data set [2] is above 25000 nM. Besides, the inhibition at up to 83.3 µM in data set [5] is 5%.

For the origin of these results see patent publication US20230119479A1, “A HISTONE DEACETYLASE INHIBITOR HAVING A NITROGEN-CONTAINING AROMATIC HETEROCYCLYL GROUP” (SHIONOGI & CO., LTD., priority 2019, published 2023).
